# Source: patent US11066445B2, “Immunomodulators acting as antagonists of PD-1” (Bristol-Myers Squibb Company, priority 2017, dated 2021)
# Positions of bridges follow the written chain, without caps; N, C: chain ends. Non-standard residues stand in square brackets, D forms with d. Residues, ends and D or L forms follow the SMILES beside them. *: point of attachment. X3 = O=C(O)CCCCCCCCCCCCCCCCC(=O)N[C@@H](CCC(=O)NCCCOCCOCCOCCCN*)C(=O)O; Trp(1-CH2CONHSO2Me) = CS(=O)(=O)NC(=O)Cn1cc(C[C@H](N)C(=O)O)c2ccccc21; X1 = O=C(O)CCCCCCCCCCCCCCC(=O)N[C@@H](CCC(=O)NCCCOCCOCCOCCCN*)C(=O)O; Trp(4-aza,1-CH2COOH) = N[C@@H](Cc1cn(CC(=O)O)c2cccnc12)C(=O)O; Trp(1-CH2CO2Me) = COC(=O)Cn1cc(C[C@H](N)C(=O)O)c2ccccc21; Hyp = O=C(O)[C@@H]1C[C@@H](O)CN1; NMeNle = CCCC[C@H](NC)C(=O)O; NMeA = CN[C@@H](C)C(=O)O; Dab = NCC[C@H](N)C(=O)O; Dap = NC[C@H](N)C(=O)O; Sar = CNCC(=O)O
# Molecular target: T1, PD-1-Ig binding to PD-L1-TVMV-His (PD-L1-His) (Homo sapiens, UniProt Q9NZQ7)
# T1 construct: hPDL1(19-239)-TVMV-His; TVMV protease cleavage site (C); made in house; host or cells: HEK293T cells
# Experiment: PD-1/PD-L1 Homogenous Time-Resolved Fluorescence (HTRF) binding assay
# Details: PD-1-Ig (20 nM) / PD-L1-His (10 nM); numeric values; read-out: LE HTRF hPD1 hPDL1 IC50
# Source text: Methods for Testing the Ability of Macrocyclic Peptides to Compete for the Binding of Pd-1 to Pd-L1 Using Homogenous Time-Resolved Fluorescence (HTRF) Binding Assays
# The ability of the macrocyclic peptides of the present disclosure to bind to PD-L1 was investigated using a PD-1/PD-L1 Homogenous Time-Resolved Fluorescence (HTRF) binding assay.
# Homogenous Time-Resolved Fluorescence (HTRF) Assays of Binding of Soluble PD-1 to Soluble PD-L1. Soluble PD-1 and soluble PD-L1 refers to proteins with carboxyl-end truncations that remove the transmembrane-spanning regions and are fused to heterologous sequences, specifically the Fc portion of the human immunoglobuling G sequence (Ig) or the hexahistidine epitope tag (His). All binding studies were performed in an HTRF assay buffer consisting of dPBS supplemented with 0.1% (w/v) bovine serum albumin and 0.05% (v/v) Tween-20. For the PD-1-Ig/PD-L1-His binding assay, inhibitors were pre-incubated with PD-L1-His (10 nM final) for 15 m in 4 μl of assay buffer, followed by addition of PD-1-Ig (20 nM final) in 1 μl of assay buffer and further incubation for 15 m. PD-L1 fusion proteins from either human, cynomologous macaques, mouse, or other species were used. HTRF detection was achieved using europium crypate-labeled anti-Ig monoclonal antibody (1 nM final) and allophycocyanin (APC) labeled anti-His monoclonal antibody (20 nM final). Antibodies were diluted in HTRF detection buffer and 5 μl was dispensed on top of binding reaction. The reaction was allowed to equilibrate for 30 minutes and signal (665 nm/620 nm ratio) was obtained using an EnVision fluorometer. Additional binding assays were established between PD-1-Ig/PD-L2-His (20 and 5 nM, respectively), CD80-His/PD-L1-Ig (100 and 10 nM, respectively) and CD80-His/CTLA4-Ig (10 and 5 nM, respectively). Binding/competition studies between biotinylated Compound No. 71 and human PD-L1-His were performed as follows. Macrocyclic peptide inhibitors were pre-incubated with PD-L1-His (10 nM final) for 60 minutes in 4 μl of assay buffer followed by addition of biotinylated Compound No. 71 (0.5 nM final) in 1 μl of assay buffer. Binding was allowed to equilibrate for 30 minutes followed by addition of europium crypated labeled Streptavidin (2.5 pM final) and APC-labeled anti-His (20 nM final) in 5 μl of HTRF buffer. The reaction was allowed to equilibrate for 30 m and signal (665 nm/620 nm ratio) was obtained using an EnVision fluorometer.
# Recombinant Proteins. Carboxyl-truncated human PD-1 (amino acids 25-167) with a C-terminal human Ig epitope tag [hPD-1 (25-167)-3S-IG] and human PD-L1 (amino acids 18-239) with a C-terminal His epitope tag [hPD-L1(19-239)-tobacco vein mottling virus protease cleavage site (TVMV)-His] were expressed in HEK293T cells and purified sequentially by recombinant Protein A affinity chromatography and size exclusion chromatography. Human PD-L2-His (Sino Biologicals), CD80-His (Sino Biologicals), CTLA4-Ig (RnD Systems) were all obtained through commercial sources.
# Ranges are as follows: A=0.010-0.060 μM; B=0.0011-0.009 μM; C=0.0003-0.0010 μM.
# T1 sequence (Q9NZQ7 with tags, fused parts or gaps): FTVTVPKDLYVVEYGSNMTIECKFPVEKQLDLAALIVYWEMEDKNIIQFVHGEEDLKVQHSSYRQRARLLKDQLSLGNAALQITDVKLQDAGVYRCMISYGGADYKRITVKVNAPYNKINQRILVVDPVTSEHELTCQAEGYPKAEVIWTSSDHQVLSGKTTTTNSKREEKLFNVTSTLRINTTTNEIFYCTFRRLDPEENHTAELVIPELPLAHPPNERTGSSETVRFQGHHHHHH
row,SMILES,IC50 [nM]
1,CCCC[C@H]1C(=O)N(C)[C@@H](CCCC)C(=O)N[C@@H](CC(C)C)C(=O)N[C@H](C(=O)N[C@@H](Cc2cn(CCOCCOCCOCCOCCOCCOCCOCCOCCOCCOCCOCCNC(=O)CC[C@H](NC(=O)CCCCCCCCCCCCCCCCC(=O)O)C(=O)O)nn2)C(=O)O)CSCC(=O)N[C@@H](Cc2ccc(O)cc2)C(=O)N(C)[C@@H](C)C(=O)N[C@@H](CC(N)=O)C(=O)N2CCC[C@H]2C(=O)N[C@@H](CN)C(=O)N[C@@H](CC(C)C)C(=O)N2C[C@H](O)C[C@H]2C(=O)N[C@@H](Cc2c[nH]c3ccccc23)C(=O)N[C@@H](CCN)C(=O)N[C@@H](Cc2nn(CC(=O)O)c3ccccc23)C(=O)N1C [Example 22],0.6

# Same assay, conditions: PD-1-Ig (20 nM) / PD-L1-His (10 nM); range classes; read-out: LE HTRF hPD1 hPDL1 IC50
row,SMILES,IC50 [nM]
1,"CCCC[C@H]1C(=O)N(C)[C@@H](CCCC)C(=O)N[C@@H](CC(C)C)C(=O)N[C@H](C(=O)NCC(=O)N[C@@H](CC(=O)NCCCOCCOCCOCCCNC(=O)CC[C@H](NC(=O)CCCCCCCCCCCCCCC(=O)O)C(=O)O)C(=O)O)CSCC(=O)N[C@@H](Cc2ccc(O)cc2)C(=O)N(C)[C@@H](C)C(=O)N[C@@H](CC(N)=O)C(=O)N2CCC[C@H]2C(=O)N[C@@H](CN)C(=O)N[C@@H](CC(C)C)C(=O)N2C[C@H](O)C[C@H]2C(=O)N[C@@H](Cc2c[nH]c3ccccc23)C(=O)N[C@@H](CCN)C(=O)N[C@@H](Cc2cn(CC(=O)O)c3cccnc23)C(=O)N1C [Example 18] ({CH2CO}-Y[NMeA]NP[Dap]L[Hyp]W[Dab][Trp(4-aza,1-CH2COOH)][NMeNle][NMeNle]LCGD(X1)-OH; thioether N-14)",10 to 60
2,CCCC[C@H]1C(=O)N(C)[C@@H](CCCC)C(=O)N[C@@H](CC(C)C)C(=O)N[C@H](C(=O)NCC(=O)N[C@@H](Cc2cn(CCOCCOCCOCCOCCOCCOCCOCCOCCOCCOCCOCCNC(=O)CC[C@H](NC(=O)CCCCCCCCCCCCCCCCC(=O)O)C(=O)O)nn2)C(=O)O)CSCC(=O)N[C@@H](Cc2ccc(O)cc2)C(=O)N(C)[C@@H](C)C(=O)N[C@@H](CC(N)=O)C(=O)N2CCC[C@H]2C(=O)N[C@@H](CN)C(=O)N[C@@H](CC(C)C)C(=O)N2C[C@H](O)C[C@H]2C(=O)N[C@@H](Cc2c[nH]c3ccccc23)C(=O)N[C@@H](CCN)C(=O)N[C@@H](Cc2cn(CC(=O)O)c3ncccc23)C(=O)N1C [Example 31],0.3 to 1
3,CCCC[C@H]1C(=O)N(C)[C@@H](CCCC)C(=O)N[C@@H](CC(C)C)C(=O)N[C@H](C(=O)N[C@@H](Cc2cn(CCOCCOCCOCCOCCOCCOCCOCCOCCOCCOCCOCCNC(=O)CC[C@H](NC(=O)CCCCCCCCCCCCCCCCC(=O)O)C(=O)O)nn2)C(=O)O)CSCC(=O)N[C@@H](Cc2ccc(O)cc2)C(=O)N(C)[C@@H](C)C(=O)N[C@@H](CC(N)=O)C(=O)N2CCC[C@H]2C(=O)N[C@@H](CN)C(=O)N[C@@H](CC(C)C)C(=O)N2C[C@H](O)C[C@H]2C(=O)N[C@@H](Cc2c[nH]c3ccccc23)C(=O)N[C@@H](CCN)C(=O)N[C@@H](Cc2cn(CC(=O)O)c3cccnc23)C(=O)N1C [Example 26],1.1 to 9
4,CCCC[C@H]1C(=O)N(C)[C@@H](CCCC)C(=O)N[C@@H](CC(C)C)C(=O)N[C@H](C(=O)NCC(=O)N[C@@H](CC(=O)NCCCOCCOCCOCCCNC(=O)CC[C@H](NC(=O)CCCCCCCCCCCCCCCCC(=O)O)C(=O)O)C(=O)O)CSCC(=O)N[C@@H](Cc2ccc(O)cc2)C(=O)N(C)[C@@H](C)C(=O)N[C@@H](CC(N)=O)C(=O)N(C)CC(=O)N[C@@H](CN)C(=O)N[C@@H](CC(C)C)C(=O)N2C[C@H](O)C[C@H]2C(=O)N[C@@H](Cc2c[nH]c3ccccc23)C(=O)N[C@@H](CCN)C(=O)N[C@@H](Cc2cn(CC(=O)NS(C)(=O)=O)c3ccccc23)C(=O)N1C [Example 2] ({CH2CO}-Y[NMeA]N[Sar][Dap]L[Hyp]W[Dab][Trp(1-CH2CONHSO2Me)][NMeNle][NMeNle]LCGD(X3)-OH; thioether N-14),1.1 to 9
5,CCCC[C@H]1C(=O)N(C)[C@@H](CCCC)C(=O)N[C@@H](CC(C)C)C(=O)N[C@H](C(=O)N[C@@H](Cc2cn(CCOCCOCCOCCOCCOCCOCCOCCOCCOCCOCCOCCNC(=O)CC[C@H](NC(=O)CCCCCCCCCCCCCCCCC(=O)O)C(=O)O)nn2)C(=O)O)CSCC(=O)N[C@@H](Cc2ccc(O)cc2)C(=O)N(C)[C@@H](C)C(=O)N[C@@H](CC(N)=O)C(=O)N2CCC[C@H]2C(=O)N[C@@H](CN)C(=O)N[C@@H](CC(C)C)C(=O)N2C[C@H](O)C[C@H]2C(=O)N[C@@H](Cc2c[nH]c3ccccc23)C(=O)N[C@@H](CCN)C(=O)N[C@@H](Cc2nn(CC(=O)O)c3ccc(OC)cc23)C(=O)N1C [Example 24],0.3 to 1
6,CCCC[C@H]1C(=O)N(C)[C@@H](CCCC)C(=O)N[C@@H](CC(C)C)C(=O)N[C@H](C(=O)NCC(=O)NCCCOCCOCCOCCCNC(=O)CC[C@H](NC(=O)CCCCCCCCCCCCCCCCC(=O)O)C(=O)O)CSCC(=O)N[C@@H](Cc2ccc(O)cc2)C(=O)N(C)[C@@H](C)C(=O)N[C@@H](CC(N)=O)C(=O)N(C)CC(=O)N[C@@H](CN)C(=O)N[C@@H](CC(C)C)C(=O)N2C[C@H](O)C[C@H]2C(=O)N[C@@H](Cc2c[nH]c3ccccc23)C(=O)N[C@@H](CCN)C(=O)N[C@@H](Cc2cn(CC(=O)NS(C)(=O)=O)c3ccccc23)C(=O)N1C [Example 4] ({CH2CO}-Y[NMeA]N[Sar][Dap]L[Hyp]W[Dab][Trp(1-CH2CONHSO2Me)][NMeNle][NMeNle]LCG-X3; thioether N-14),1.1 to 9
7,CCCC[C@H]1C(=O)N(C)[C@@H](CCCC)C(=O)N[C@@H](CC(C)C)C(=O)N[C@H](C(=O)NCC(=O)N[C@@H](Cc2cn(CCOCCOCCOCCOCCOCCOCCOCCOCCOCCOCCOCCNC(=O)CCC(NC(=O)CCCCCCCCCCCCCCCCC(=O)O)C(=O)O)nn2)C(=O)O)CSCC(=O)N[C@@H](Cc2ccc(O)cc2)C(=O)N(C)[C@@H](C)C(=O)N[C@@H](CC(N)=O)C(=O)N2CCC[C@H]2C(=O)N[C@@H](CN)C(=O)N[C@@H](CC(C)C)C(=O)N2C[C@H](O)C[C@H]2C(=O)N[C@@H](Cc2c[nH]c3ccccc23)C(=O)N[C@@H](CCN)C(=O)N[C@@H](Cc2cn(CC(=O)O)c3cccnc23)C(=O)N1C (stereo partly drawn) [Example 28],10 to 60
8,CCCC[C@H]1C(=O)N(C)[C@@H](CCCC)C(=O)N[C@@H](CC(C)C)C(=O)N[C@H](C(=O)NCC(=O)N[C@@H](CC(=O)NCCCOCCOCCOCCCNC(=O)CC[C@H](NC(=O)CCCCCCCCCCCCCCC(=O)O)C(=O)O)C(=O)O)CSCC(=O)N[C@@H](Cc2ccc(O)cc2)C(=O)N(C)[C@@H](C)C(=O)N[C@@H](CC(N)=O)C(=O)N2CCC[C@H]2C(=O)N[C@@H](CN)C(=O)N[C@@H](CC(C)C)C(=O)N2C[C@H](O)C[C@H]2C(=O)N[C@@H](Cc2c[nH]c3ccccc23)C(=O)N[C@@H](CCN)C(=O)N[C@@H](Cc2cn(CC(=O)OC)c3ccccc23)C(=O)N1C [Example 16] ({CH2CO}-Y[NMeA]NP[Dap]L[Hyp]W[Dab][Trp(1-CH2CO2Me)][NMeNle][NMeNle]LCGD(X1)-OH; thioether N-14),1.1 to 9
